Key:
Type in all cases: cell-based
cancer cells of liver = assay: Growth inhibition of cancer cells of liver; details: Homo sapiens; concentration of about 100 μg/ml; Hep-2; read-out: inhibits the growth of cancer cells of liver
Method: (§1) The human cancer cell lines were obtained either from National center for cell science, Pune, India or National Cancer Institute, Frederick, Md., U.S.A. Cells were grown in tissue culture flasks in complete growth medium (RPMI-1640 medium with 2 mM glutamine, 100 μg/ml streptomycin, pH 7.4, sterilized by filtration and supplemented with 10% sterilized fetal calf serum and 100 units/ml penicillin before use) at 37° C. in an atmosphere of 5% CO2 and 90% relative humidity in a carbon dioxide incubator (WTB binder, Germany). The cells at subconfluent stage were harvested from the flask by treatment with trypsin (0.05% trypsin in PBS containing 0.02% EDTA) and suspended in complete growth medium. […]
(§2) Cell growth was measured by staining with sulforhodamine B dye (SRB). […] The optical density was recorded on ELISA reader at 540 run.
(§3) The cell growth in presence of test material was determined by subtracting mean OD value of respective blank from the mean OD value of experimental set. Like wise, cell growth in absence of test material (control set) and in presence of positive control was also determined. The percent cell growth in presence of test material was determined considering the cell growth in absence of test material as 100% and in turn percent inhibition was calculated.

A-549 = assay: In vitro cytotoxicity (SRB), A-549; details: Homo sapiens, A549, A-549 (lung), 48-hours, read-out: Percent growth inhibition; for inhibition at 10 µg/mL: 10 μg/ml; for inhibition at 30 µg/mL: 30 μg/ml; for inhibition at 100 µg/mL: 100 μg/ml
Method: (§4) The human cancer cell lines were obtained either from National center for cell science, Pune, India or National Cancer Institute, Frederick, Md., U.S.A. Cells were grown in tissue culture flasks in complete growth medium (RPMI-1640 medium with 2 mM glutamine, 100 μg/ml streptomycin, pH 7.4, sterilized by filtration and supplemented with 10% sterilized fetal calf serum and 100 units/ml penicillin before use) at 37° C. in an atmosphere of 5% CO2 and 90% relative humidity in a carbon dioxide incubator (WTB binder, Germany). The cells at subconfluent stage were harvested from the flask by treatment with trypsin (0.05% trypsin in PBS containing 0.02% EDTA) and suspended in complete growth medium. Cells with cell viability of more than 97% by trypan blue exclusion technique were used for determination of cytotoxicity.
(§5) (−)-Matairesinol was dissolved in DMSO (dimethyl sulphoxide) to obtain a stock solution of 20 mg/ml. The stock solution was serially diluted with complete growth medium containing 50 μg/ml of gentamycin to obtain three working test solutions of 200, 60 and 20 μg/ml
(§6) The suspension of human cancer cell lines of required cell density in complete growth medium was prepared and cell suspension ([…] per wall) of each cell line) of 96-well tissue culture plate. Three additional wells of each cell line were also prepared for control. Two blank wells for control and each experimental and each experimental set for every cell line were also included that contained equivalent amount of complete growth medium only. The plates were incubated at 37° C. in an atmosphere of 5% CO2 and 90% relative humidity in a carbon dioxide incubator.
(§7) The working test solutions of (−)-Matairesinol of different concentrations (100 μl) were added after 24-hours incubation in all the wells including blanks of the experimental set. The equivalent amount of complete growth medium was added to control set.
(§8) The plates were further incubated for 48-hours (at 37° C. in an atmosphere of 5% CO2 and 90% relative humidity in a carbon dioxide incubator) after addition of test material etc. and then the cell growth was stopped by gently layering of 50 μl of TCA (50% trichloroacetic acid) on top of the medium in all the wells. The plates were incubated at 4° C. for one hour to fix the cells attached to the bottom of the wells. Liquids of all the wells were gently pipetted out and discarded. The plates were washed five times with distilled water to remove TCA, growth medium, low molecular weight metabolites, serum proteins etc. Plates were air-dried.
(§9) Cell growth was measured by staining with sulforhodamine B dye (SRB). The SRB solution (100 μl of 0.4% in 1% acetic acid) was added to each well and the plates were incubated at room temperature for 30 minutes. The unbound SRB was quickly removed by washing the wells five times with 1-% acetic acid and plates were air-dried. Tris-buffer (100 μl of 0.01 M, pH 10.4) was added to all the wells and plates were gently stirred for 5 minutes on a mechanical stirrer. The optical density was recorded on ELISA reader at 540 run.
as §3

HT-29 = assay: In vitro cytotoxicity (SRB), HT-29; details: Homo sapiens, HT-29 (colon), 48-hours, read-out: Percent growth inhibition; for inhibition at 30 µg/mL: 30 μg/ml; for inhibition at 100 µg/mL: 100 μg/ml
Method: as §4, §5, §6, §7
The plates were further incubated for 48-hours (at 37° C. in an atmosphere of 5% CO2 and 90% relative humidity in a carbon dioxide incubator) after addition of test material etc. and then the cell growth was stopped by gently layering of 50 μl of TCA (50% trichloroacetic acid) on top of the medium in all the wells. […]
as §2, §3

Colo-205 = assay: In vitro cytotoxicity (SRB), Colo-205; details: Homo sapiens, Colo-205 (colon), 48-hours, read-out: Percent growth inhibition; for inhibition at 10 µg/mL: 10 μg/ml; for inhibition at 30 µg/mL: 30 μg/ml; for inhibition at 100 µg/mL: 100 μg/ml
Method: as §4, §5, §6, §7, §8, §9, §3

SiHa = assay: In vitro cytotoxicity (SRB), SiHa; details: Homo sapiens, SiHa (cervix), 48-hours, read-out: Percent growth inhibition; for inhibition at 10 µg/mL: 10 μg/ml; for inhibition at 30 µg/mL: 30 μg/ml; for inhibition at 100 µg/mL: 100 μg/ml
Method: as §4, §5, §6, §7, §8, §9, §3

IMR-32 = assay: In vitro cytotoxicity (SRB), IMR-32; details: Homo sapiens; IMR-32 (neuroblastoma), 100 μg/ml, 48-hours; read-out: Percent growth inhibition
Method: as §1, §2, §3

SW-620 = assay: In vitro cytotoxicity (SRB), SW-620; details: Homo sapiens, SW-620 (colon), 48-hours, read-out: Percent growth inhibition; for inhibition at 30 µg/mL: 30 μg/ml; for inhibition at 100 µg/mL: 100 μg/ml
Method: as §4, §5, §6, §7, §8
as §9, with “Tris-buffer (100 μl of 0.01 M, pH 10.4) was added to all the wells and plates were gently stirred for 5 minutes on a mechanical stirrer.” left out
as §3

cancer cells of breast = assay: Growth inhibition of cancer cells of breast; details: Homo sapiens; concentration of about 100 μg/ml; MCF-7 and ZR-75-1; read-out: inhibits the growth of cancer cells of breast
Method: as §1, §2, §3

ZR-75-1 = assay: In vitro cytotoxicity (SRB), ZR-75-1; details: Homo sapiens; ZR-75-1 (breast), 100 μg/ml, 48-hours; read-out: Percent growth inhibition
Method: as §1, §2, §3

cancer cells of lung = assay: Growth inhibition of cancer cells of lung; details: Homo sapiens, A549; concentration of about 100 μg/ml; A-549; read-out: inhibits the growth of cancer cells of lung
Method: as §1, §2, §3

[1] = system: cancer cells of neuroblastoma; assay: Growth inhibition of cancer cells of neuroblastoma; details: Homo sapiens; concentration of about 100 μg/ml; SKNMC and IMR-32; read-out: inhibits the growth of cancer cells of neuroblastoma
Method: as §1, §2, §3

cancer cells of cervix = assay: Growth inhibition of cancer cells of cervix; details: Homo sapiens; concentration of about 100 μg/ml; SiHa; read-out: inhibits the growth of cancer cells of cervix
Method: as §1, §2, §3

cancer cells of colon = assay: Growth inhibition of cancer cells of colon; details: Homo sapiens; concentration of about 100 μg/ml; Colo-205, HT-29 and SW-620; read-out: inhibits the growth of cancer cells of colon
Method: as §1, §2, §3

MCF-7 = assay: In vitro cytotoxicity (SRB), MCF-7; details: Homo sapiens, MCF7, MCF-7 (breast), 48-hours, read-out: Percent growth inhibition; for inhibition at 10 µg/mL: 10 μg/ml; for inhibition at 30 µg/mL: 30 μg/ml; for inhibition at 100 µg/mL: 100 μg/ml
Method: as §4, §5, §6, §7, §8, §9, §3

Hep-2 = assay: In vitro cytotoxicity (SRB), Hep-2; details: Homo sapiens; Hep-2 (liver), 100 μg/ml, 48-hours; read-out: Percent growth inhibition
Method: as §1, §2, §3

human cancer cell lines = assay: In vitro cytotoxicity against the human cancer cell lines studied (panel); details: for inhibition of cell growth of the human cancer cell lines studied (in words): 10, 30 and 100 μg/ml; for inhibition at 100 µg/mL: Homo sapiens, at 100 μg/ml, read-out: inhibition of cell growth, range over the human cancer cell lines studied
Method: as §4, §5, §6
The working test solutions of (−)-Matairesinol of different concentrations (100 μl) were added after 24-hours incubation in all the wells including blanks of the experimental set. The equivalent amount of complete growth medium was added to control set. […]
as §2, §3
In vitro cytotoxicity of (−)-matairesinol was determined against human breast (MCF-7 & ZR-75-1), neuroblastoma (SK-N-MC & IMR-32), cervix (SiHa), colon (Colo-205, HT-29 & SW-620), liver (HEP-2) and lung (A-549) cancer cell lines. […]

SKNMC = assay: In vitro cytotoxicity (SRB), SKNMC; details: Homo sapiens, SK-N-MC; SKNMC (neuroblastoma), 100 μg/ml, 48-hours; read-out: Percent growth inhibition
Method: as §1, §2, §3

SMILES: COc1cc(CC2COC(=O)C2(O)Cc2ccc(O)c(OC)c2)ccc1O (stereo in doubt) [(−)-Wikstromol]
- inhibition at 100 µg/mL (cancer cells of liver): ≤ 46%
- inhibition at 10 µg/mL (A-549): 21%
- inhibition at 30 µg/mL (A-549): 37%
- inhibition at 100 µg/mL (A-549): 56%
- inhibition at 30 µg/mL (HT-29): 6%
- inhibition at 100 µg/mL (HT-29): 32%
- inhibition at 10 µg/mL (Colo-205): 5%
- inhibition at 30 µg/mL (Colo-205): 27%
- inhibition at 100 µg/mL (Colo-205): 67%
- inhibition at 10 µg/mL (SiHa): 16%
- inhibition at 30 µg/mL (SiHa): 21%
- inhibition at 100 µg/mL (SiHa): 37%
- inhibition at 100 µg/mL (IMR-32): 56%
- inhibition at 10 µg/mL (SW-620; 10 μg/ml): 14%
- inhibition at 30 µg/mL (SW-620): 20%
- inhibition at 100 µg/mL (SW-620): 50%
- inhibition at 100 µg/mL (cancer cells of breast): ≤ 51%
- inhibition at 100 µg/mL (ZR-75-1): 37%
- inhibition at 100 µg/mL (cancer cells of lung): ≤ 56%
- inhibition at 100 µg/mL [1]: ≤ 56%
- inhibition at 100 µg/mL (cancer cells of cervix): ≤ 37%
- inhibition at 100 µg/mL (cancer cells of colon): ≤ 67%
- inhibition at 10 µg/mL (MCF-7): 7%
- inhibition at 30 µg/mL (MCF-7): 26%
- inhibition at 100 µg/mL (MCF-7): 51%
- inhibition at 100 µg/mL (Hep-2): 46%
- inhibition of cell growth of the human cancer cell lines studied (in words) (human cancer cell lines): dose dependent inhibition of cell growth
- inhibition at 100 µg/mL (human cancer cell lines): 32 to 67%
- inhibition at 100 µg/mL (SKNMC): 44%

SMILES: COc1cc(C[C@H]2COC(=O)[C@@H]2Cc2ccc(O)c(OC)c2)ccc1O [(−)-Matairesinol]
- inhibition at 100 µg/mL (cancer cells of liver): ≤ 64%
- inhibition at 10 µg/mL (A-549): 19%
- inhibition at 30 µg/mL (A-549): 33%
- inhibition at 100 µg/mL (A-549): 65%
- inhibition at 30 µg/mL (HT-29): 10%
- inhibition at 100 µg/mL (HT-29): 74%
- inhibition at 10 µg/mL (Colo-205): 15%
- inhibition at 30 µg/mL (Colo-205): 28%
- inhibition at 100 µg/mL (Colo-205): 93%
- inhibition at 10 µg/mL (SiHa): 10%
- inhibition at 30 µg/mL (SiHa): 29%
- inhibition at 100 µg/mL (SiHa): 63%
- inhibition at 100 µg/mL (IMR-32): 77%
- inhibition at 30 µg/mL (SW-620): 11%
- inhibition at 100 µg/mL (SW-620): 68%
- inhibition at 100 µg/mL (cancer cells of breast): ≤ 62%
- inhibition at 100 µg/mL (ZR-75-1): 62%
- inhibition at 100 µg/mL (cancer cells of lung): ≤ 65%
- inhibition at 100 µg/mL [1]: ≤ 77%
- inhibition at 100 µg/mL (cancer cells of cervix): ≤ 63%
- inhibition at 100 µg/mL (cancer cells of colon): ≤ 93%
- inhibition at 10 µg/mL (MCF-7): 10%
- inhibition at 30 µg/mL (MCF-7): 36%
- inhibition at 100 µg/mL (MCF-7): 54%
- inhibition at 100 µg/mL (Hep-2): 64%
- inhibition of cell growth of the human cancer cell lines studied (in words) (human cancer cell lines): dose dependent inhibition of cell growth
- inhibition at 100 µg/mL (human cancer cell lines): 54 to 93%
- inhibition at 100 µg/mL (SKNMC): 75%

Reference: patent US7285571B2, “Herbal chemical composition for the treatment of cancer” (Council of Scientific and Industrial Research, priority 2001, dated 2007)
